# Measured values: patent publication US5384408A, “Substituted pyrazine and its salts, compositions containing them and their use in medicine” (priority 1993, dated 1995)
# Entries after “also recorded” stand apart in the source; their conditions may differ. Where two headings read alike, the source gives them in different places.
# What was measured:
# M1 (ganglion) = target: T1, M1 (ganglion) (Rattus norvegicus, UniProt P08482); assay: functional selectivity, ganglion M1 agonist activity (methods of J. Med. Chem. 1987, 30, 969-975); assay type: biochemical
# T1 construct: as measured in the rat ganglion; from tissue; host or cells: rat ganglion
# T1 sequence (P08482 1-460): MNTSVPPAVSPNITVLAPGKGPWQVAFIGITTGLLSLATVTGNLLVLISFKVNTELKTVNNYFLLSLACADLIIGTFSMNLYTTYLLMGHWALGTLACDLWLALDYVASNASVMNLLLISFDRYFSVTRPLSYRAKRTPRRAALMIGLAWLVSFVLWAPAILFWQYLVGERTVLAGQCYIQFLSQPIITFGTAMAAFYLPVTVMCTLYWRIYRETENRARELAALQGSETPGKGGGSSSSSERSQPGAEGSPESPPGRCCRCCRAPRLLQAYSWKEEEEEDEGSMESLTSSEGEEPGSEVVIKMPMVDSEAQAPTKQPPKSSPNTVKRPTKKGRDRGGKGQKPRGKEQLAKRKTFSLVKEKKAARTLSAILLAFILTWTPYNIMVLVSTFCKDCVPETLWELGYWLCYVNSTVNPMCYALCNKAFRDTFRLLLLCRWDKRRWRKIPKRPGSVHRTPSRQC
# From the text: (§1) European Patent Application No. 89200147 (Publication No. 327155) discloses a class of pyrazines, pyridazines or pyrimidines, and salts and prodrugs thereof, substituted on one of the ring carbon atoms thereof with a non-aromatic azacyclic or azabicyclic ring system; and independently substituted on each of the other ring carbon atoms with a substituent of low lipophilicity or a hydrocarbon substituent, which compounds stimulate cholinergic transmission.
# (§2) 1. By the methods disclosed in J. Med. Chem. (1987), 30, 969-975 was determined the functional selectivity of compound (I): […]
# M2 (heart) = target: T2, M2 (heart) (Cavia porcellus, UniProt H0VRN8); assay: functional selectivity, heart M2 antagonist activity (methods of J. Med. Chem. 1987, 30, 969-975); assay type: biochemical, guinea pig
# T2 construct: as measured in the guinea pig heart; from tissue; host or cells: guinea pig heart
# T2 sequence (H0VRN8 1-466): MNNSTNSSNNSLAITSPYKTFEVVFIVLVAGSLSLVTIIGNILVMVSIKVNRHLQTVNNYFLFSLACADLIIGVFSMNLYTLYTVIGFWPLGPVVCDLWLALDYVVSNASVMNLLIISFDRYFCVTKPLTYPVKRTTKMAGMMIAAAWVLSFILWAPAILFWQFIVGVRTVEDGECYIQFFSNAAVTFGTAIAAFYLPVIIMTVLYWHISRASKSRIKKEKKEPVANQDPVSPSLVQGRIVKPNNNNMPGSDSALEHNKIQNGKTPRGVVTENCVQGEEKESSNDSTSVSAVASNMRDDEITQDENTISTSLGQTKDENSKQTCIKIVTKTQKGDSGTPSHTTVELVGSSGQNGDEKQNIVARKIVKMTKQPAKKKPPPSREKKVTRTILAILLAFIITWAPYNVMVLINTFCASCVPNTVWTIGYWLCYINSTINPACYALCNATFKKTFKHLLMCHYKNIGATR
# From the text: as §1, §2
# M3 (ileum) = target: T3, M3 (ileum) (Cavia porcellus, UniProt H0W1Z3); assay: functional selectivity, ileum M3 antagonist activity (methods of J. Med. Chem. 1987, 30, 969-975); assay type: biochemical, guinea pig
# T3 construct: guinea pig heart and guinea pig ileum; from tissue; host or cells: guinea pig ileum
# From the text: as §1, §2
# intraocular pressure = assay: Glaucoma method: intraocular pressure in African Green monkeys; assay type: in vivo
# Experimental: Male or female African Green monkeys (2.0-4.5 kg) were fasted following their afternoon feeding on the day prior to the experiment. The monkeys were anaesthetised in their cages with approximately 10 mg/kg i.m. ketamine HCl (Vetalar or Ketaset). Once sedated, the animals were restrained in monkey chairs and brought to the laboratory. One drop of 0.5% proparacaine (Ophthetic) was instilled into each eye. After 30 seconds, intraocular pressure (IOP) determinations were taken in each eye (control or "0" time reading) using a Digilab Modular One Pneuma Tonometer. Both eyes were then flushed with saline. Vehicle or test agent (0.0005-2.0%) was administered (25 μl) into the cul-de-sac of both eyes and the IOP was determined at 0.5 and 1.0 hour and at hourly intervals thereafter for up to 5 hours and compared to the control IOP. For ocular instillation, 0.5% hydroxyethylcellulose (HEC) was employed as the vehicle. Supplemental doses of 10 mg or more/animal i.m. ketamine HCl were given 3-5 minutes prior to IOP determinations. Proparacaine HCl (0.5%) (one drop/eye) was also instilled immediately prior to IOP determinations. Following the final IOP determination, both eyes were flushed liberally with saline and a sterile ophthalmic ointment (Ilotycin, erythromycin, 5 mg/gm) was applied. […] Pupil diameter was measured under standard laboratory lighting conditions using a millimeter ruler. […]
# M1 muscarinic receptor = target: T4, M1 muscarinic receptor (Rattus norvegicus, UniProt P08482); assay: M1 muscarinic activity (method of Newberry et al.); assay type: biochemical
# T4 construct: as measured in the rat ganglion; from tissue
# T4 sequence (P08482 1-460): T1 sequence (P08482 1-460)
# From the text: as §1
# The following two compounds: 3(R)-[2-(6-trifluoromethyl) pyrazinyl]-1-azabicyclo[2.2.2]octane (Compound 1), and 3(R)-[2-(6chloro)pyrazinyl]-1-azabicyclo[2.2.2]octane (Compound 2) were tested for muscarinic activity using the method of Newberry, et al. (Br. J. Pharmacol, 1987, pp. 817-876). The specific M1 muscarinic activities of Compound 1 and Compound 2 were determined and the results are as follows: […]
# M3 muscarinic receptor [1] = target: T5, M3 muscarinic receptor (Cavia porcellus, UniProt H0W1Z3); assay: M3 muscarinic activity, ileum preparation (method of Freedman et al.); assay type: biochemical, guinea pig; settings: for M3 receptor action (in words): ileum assay
# T5 construct: involving ileum preparation; from tissue; host or cells: ileum (guinea pig by b7)
# M3 muscarinic receptor [2] = assay: as above; assay type: biochemical, guinea pig; settings: versus reference 6-Cl compound
# [3] = listed as 6-C1 reference compound
# T5 sequence (H0W1Z3 1-590): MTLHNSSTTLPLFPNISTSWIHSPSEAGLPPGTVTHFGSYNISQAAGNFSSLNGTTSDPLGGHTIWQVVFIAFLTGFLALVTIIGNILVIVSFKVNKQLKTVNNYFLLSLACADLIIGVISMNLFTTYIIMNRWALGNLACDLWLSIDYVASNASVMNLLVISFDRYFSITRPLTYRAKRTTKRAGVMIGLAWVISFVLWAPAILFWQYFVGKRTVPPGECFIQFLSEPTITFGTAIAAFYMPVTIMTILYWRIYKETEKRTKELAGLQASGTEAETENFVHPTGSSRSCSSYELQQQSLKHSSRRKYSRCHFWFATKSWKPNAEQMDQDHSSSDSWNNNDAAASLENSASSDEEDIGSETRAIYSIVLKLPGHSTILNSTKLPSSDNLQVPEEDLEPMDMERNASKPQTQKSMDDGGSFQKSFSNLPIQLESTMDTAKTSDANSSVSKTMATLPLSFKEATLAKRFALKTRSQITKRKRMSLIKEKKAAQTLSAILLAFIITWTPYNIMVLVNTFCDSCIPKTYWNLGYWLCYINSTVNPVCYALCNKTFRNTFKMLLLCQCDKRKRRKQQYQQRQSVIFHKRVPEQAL
# T3 sequence (H0W1Z3 1-590): as above
smiles,measurement,setting,value
"FC(F)(F)c1cncc(C2CN3CCC2CC3)n1 (racemic) [(±) racemate, (±)-3-[2-(6-Trifluoromethylpyrazin)yl]-1-azabicyclo[2.2.2]octane]",EC50,M1 (ganglion),500 nM
same,Kb,M2 (heart),25.1 nM
same,Kb,M3 (ileum),79.4 nM
FC(F)(F)c1cncc([C@@H]2CN3CCC2CC3)n1 [(-) base isomer],Ganglion M1 (EC50),M1 (ganglion),no agonist effect
same,Kb,"M2 (heart); heart, antagonist, read-out: Heart M2 (pA2) (converted)",100 nM
same,Kb,"M3 (ileum); ileum, antagonist, read-out: Ileum M3 (pA2) (converted)",63.1 nM
"FC(F)(F)c1cncc([C@H]2CN3CCC2CC3)n1 [(I): (+) base isomer, (R)-(+)-3-[2-(6-Trifluoromethylpyrazin)yl]-1-azabicyclo[2.2.2]octane]",EC50,M1 (ganglion),200 nM
same,Kb,M2 (heart),15.8 nM
same,Kb,M3 (ileum),15.8 nM
same,Change in IOP (maximum mm Hg change in intraocular pressure),"intraocular pressure; 0.05%, 25 μl into cul-de-sac of both eyes, up to 5 hours",-3.5 mm Hg
same,intraocular pressure lowering (in words),intraocular pressure; glaucoma test,positive lowering of intraocular pressure
same,EC50,M1 muscarinic receptor,200 nM
same,M1 muscarinic activity (in words),M1 muscarinic receptor; listed as 6-CF3 compound,retains M 1 muscarinic agonist activity comparable to that of the reference 6-C1 compound
same,M1 muscarinic activity (in words),M1 muscarinic receptor; listed as Compound 1,possess M1 muscarinic activity
same,Kb,M3 muscarinic receptor [1],15.8 nM
same,M3 receptor action (in words),M3 muscarinic receptor [1]; listed as 6-CF3 compound,not an agonist at the M3 receptor; also recorded: not an agonist of M3 receptors
same,M3 receptor action (in words),M3 muscarinic receptor [1]; listed as Compound 1,acts as antagonist on M3 receptors
same,"selectivity of action, M1 over M3 (in words)",M3 muscarinic receptor [2],significantly greater selectivity of action
"Clc1cncc([C@H]2CN3CCC2CC3)n1 [Compound 2, 3(R)-[2-(6chloro)pyrazinyl]-1-azabicyclo[2.2.2]octane, reference compound]",M1 muscarinic activity (in words),M1 muscarinic receptor,possess M1 muscarinic activity
same,M1 muscarinic activity (in words),M1 muscarinic receptor; [3],agonist on M1 receptors
same,EC50,M3 muscarinic receptor [1],30 nM
same,M3 receptor action (in words),M3 muscarinic receptor [1],M3 receptor agonist
same,M3 receptor action (in words),M3 muscarinic receptor [1]; [3],agonist on M3 receptors
same,M3 muscarinic activity pA2,"M3 muscarinic receptor [1]; ileum preparation, antagonist",no measurable pA2 data
